Assay results reported in patent US20120321694A1, “COMPOSITIONS AND USES” (priority 2010, published 2012).
Where no end group is shown, it is not given here. The star is where a group is joined. Pam3Cys = N-terminal lipid (lipidation), CCCCCCCCCCCCCCCC(=O)N[C@@H](CSCC(COC(=O)CCCCCCCCCCCCCCC)OC(=O)CCCCCCCCCCCCCCC)C(=O)*

Assays:
BV2 microglia cells = test: In vitro phagocytosis of Aβ1-42 in BV2 cells (Western blot); type: cell-based, mouse; settings: 5 μg/mL cytochalasin D, 30 min before; FIG. 16
Description: For total Aβ detection, 10-30 μg of cell extracts were separated on a precast 10-20% SDS polyacrylamide Tris-Tricine gel (Bio-Rad, Canada). Separated proteins were then transferred onto polyvinylidene fluoride (PVDF) membranes (PerkinElmer, Canada). Membrane were incubated in DPBS (Gibco, USA) at 90° C. for 10 min. […] Films were digitalized using a HP Scanjet 4370 (HP) and signal intensity was measured using ImageJ (version 1.44p, NIH).
BV2 microglia cells were seeded at 900000 cells/60 mm cell culture Petri dish 24 hours prior the experiment, and cultured in complete media (Dulbecco's Modified Eagle Medium (DMEM, Gibco, USA) supplemented with 10% fetal bovine serum (FBS) (Gibco, USA), 1 mM sodium pyruvate (Gibco, USA) and 100 U/mL of penicillin and 100 μg/mL of streptomycin (Gibco, USA)). […] Protein concentration in supernatant or cell extracts was then measured using the Bradford method (Coomassie Plus, The better Bradford assay reagent, Thermoscientific, USA) accordingly to the manufacturer recommendation and equal amount of protein were then analyzed by Western blot. […]

Aβ42 = test: Anti-Aβ42 immunogenicity in amyloid deposition mouse model; type: in vivo, TASTPM mice; settings: 12 injections, intramuscular route; FIG. 29
TASTPM mice [1] = test: Survival of TASTPM mice; type: in vivo; settings: weekly injections, followed for 112 days; PBS 13 out 25; FIG. 31
Text: The usage of the TLR2 agonist, i.e. Pam3CysLip Aβ1-6 peptide, improves the survival rate of TASTPM mouse model. 23 out of 25 mice survived after weekly injections of Pam3CysLip Aβ1-6 peptide compared to PBS injected animals in which only 13 out 25 TASTPM mice survived (followed for 112 days).

TASTPM mice [2] = test: T-water maze in TASTPM mice; type: in vivo; settings: 12 weekly i.m. injections; vs PBS; FIG. 30
Description: To determine whether a TLR2 agonist will improve the cognitive impairment in TASTPM mice, the Pam3CysLip adjuvant fused to the Aβ1-6 peptide was injected 12 times at weekly basis using the intramuscular route and the memory was assessed using the T-water maze test. […] TASTPM mice have received one a week for a period of 12 weeks the following treatment: PBS or mice have received once a week for a period of 12 weeks the following treatment: PBS or of Pam3CysLip Aβ1-6 peptide.

Row | Molecule | effect on 2E7-stimulated cellular uptake of Aβ1-42 (BV2 microglia cells) | anti Aβ42 specific immunogenicity (Aβ42) | mice survived (TASTPM mice [1]) | T-water maze, right-left discrimination tests (working memory) (TASTPM mice [2])
1 | C=C1[C@@H](C)[C@H]2[C@H](Cc3ccccc3)NC(=O)[C@]23[C@H](OC(C)=O)/C=C/[C@@](C)(O)C(=O)[C@@H](C)C/C=C/[C@H]3[C@@H]1O [cytochalasin D] | further inhibited | – | – | –
2 | Pam3Cys—SQ EPAAPAAEAT PAAEAPDAEFRH (Pam3Cys-SQEPAAPAAEATPAAEAPDAEFRH) [Pam3CysLip Aβ1-6 peptide] | – | High and specific anti Aβ42 specific immunogenicity | 23 out of 25 | trend of improvement
